What was measured:
Assay type in all cases: in vivo, mouse
[1] = test system: NIDDM male mice (C57BLKS/J-m+/+Lepr db); assay: 7 day baseline glucose test in db/db mice (Example 119); settings: for Serum Glucose % Pre-Treatment Baseline: 3 hours after dose
Protocol: Non-insulin dependent diabetic mellitus (NIDDM) male mice (C57BLKS/J-m+/+Lepr db), weighing 50±5 g and 9-10-week old, were used. The animals were housed in Individually Ventilated Cages Racks (IVC Racks) throughout the experiment and all animals were allowed free access to sterilized Lab chow and sterilized distilled water. Compounds 39, 41 and 64 at 50 mg/kg as well as vehicle (0.5% Methylcellulose) were administered orally once daily for 7 consecutive days to test animals after the first blood sampling (pre-treatment). The post-treatment blood samples were withdrawn from the orbital sinus at 3 hours after administration of daily dose on day 3 and on day 7. Serum glucose levels in the pre- and post-treatment were determined by enzymatic (Mutaratase-GOD) methods. Post-treatment serum glucose values were expressed in percentage of respective pre-treatment values. Percentage reductions were expressed in percentage of pre-treatment values of test substance relative to percentage of pre-treatment values of vehicle. All percentages were calculated and unpaired; Student's t test was then applied to establish significant difference between the test compound-treated and vehicle control groups. Differences are considered significant at P<0.05.

Lepr db mice = assay: Oral glucose tolerance test in Lepr db mice (Example 120)
Protocol: Compound 39 (25, 50 and 100 mg/kg) and vehicle (0.5% Methylcellulose) were administered orally at one hour before glucose loading (2 g/kg, PO) to Lepr db mice fasted for about 4 hours. Blood samples were collected sequentially from the retro-orbital sinus at pre-treatment one day before and about 1 and about 2 hours after glucose loading. Serum glucose values were obtained at about 1 and about 2 hours after glucose loading, percentage reductions were expressed as percentage of corresponding vehicle control values and unpaired Student's t test was then applied for comparison between test substance and vehicle group. Differences are considered significant at P<0.05 level.

[2] = test system: male db/db mice (C57BLKS/J-m+/+Lepr db/Iar); assay: Seven day baseline glucose (7DBG) study in fed db/db mice (Example 123, FIGS. 6 and 8); settings: oral once daily 7 days
Protocol: (§1) To determine the effect of a test compound on blood glucose levels in fed diabetic mice, seven day baseline glucose (7DBG) studies were conducted. Six to eight week old, male db/db mice (C57BLKS/J-m+/+Lepr^db/Iar), homozygous for a mutation in the gene encoding the leptin receptor, were purchased from the Institute for Animal Reproduction (Kasumigaura, Japan). Six to eight week old male KK-A^y mice (KK-A^y/Ta Jcl), a polygenic diabetes model, were purchased from Cler Japan (Tokyo, Japan). Animals were housed four to a cage in micro-isolators on a 12 hr/12 hr light/dark cycle, acclimated for at least one week prior to use and fed normal laboratory chow ad libitum. Studies were conducted with animals between nine and fourteen weeks of age. […]
(§2) To perform a 7DBG study, the starting glucose levels of db/db or KK-Ay mice in the fed state were determined on day 0, 24 hrs prior to the first drug dose on day 1. Animals were retro-orbitally bled and serum glucose levels measured by the mutarotase-glucose oxidase enzymatic method using a Glucose CII-Test Wako kit (Wako Pure Chemicals Industries, Ltd., Osaka, Japan). […] Serum glucose levels were determined 3 hrs after dosing the first compound on days 3 and 7.
The serum glucose levels on days 3 or 7 as a percent of the serum glucose levels on day 0 for individual animals in each group (6-7 mice/group), calculated using Formula 3: [formula] […]

[3] = test system: male KK-Ay mice (KK-Ay/Ta Jcl); assay: Seven day baseline glucose (7DBG) study in fed KK-Ay mice (Example 123, FIG. 7); settings: oral once daily 7 days
Protocol: as §1, §2
The serum glucose levels on days 3 or 7 as a percent of the serum glucose levels on day 0 for individual animals in each group (8 mice/group), were calculated using Formula 3. […]

[4] = Day 3, 50 mg/kg orally once daily
[5] = Day 7, 50 mg/kg orally once daily

CCOC(=O)C1=C(COCCN)NC2=C(C(=O)CC(C)(C)C2)C1c1cccnc1 (stereo not shown) [Compound 39, 2-(2-Amino-ethoxymethyl)-7,7-dimethyl-5-oxo-4-pyridin-3-yl-1,4,5,6,7,8-hexahydro-quinoline-3-carboxylic acid ethyl ester]
serum glucose % Reduction relative to vehicle [1, 4]: (3) %
Serum Glucose % Pre-Treatment Baseline [1, 4]: 98.5%
serum glucose % Reduction relative to vehicle [1, 5]: (18) %
Serum Glucose % Pre-Treatment Baseline [1, 5]: 82.3%
Serum Glucose (Lepr db mice; 0 hr (pre-treatment one day before), 25 mg/kg group): 375.9 ± 16.3 mg/dL
Serum Glucose (Lepr db mice; 0 hr (pre-treatment one day before), 50 mg/kg group): 371.1 ± 15.2 mg/dL
Serum Glucose (Lepr db mice; 0 hr (pre-treatment one day before), 100 mg/kg group): 340.7 ± 14.2 mg/dL
Serum Glucose (Lepr db mice; 1 hr after glucose loading (2 g/kg PO), 25 mg/kg orally): 379.3 ± 18.5 mg/dL
Serum Glucose (Lepr db mice; 1 hr after glucose loading (2 g/kg PO), 50 mg/kg orally): 415.6 ± 11.0 mg/dL
Serum Glucose (Lepr db mice; 1 hr after glucose loading (2 g/kg PO), 100 mg/kg orally): 366.2 ± 17.3 mg/dL
serum glucose % Reduction relative to vehicle (Lepr db mice; 1 hr after glucose loading, 25 mg/kg orally): (19.3) %
serum glucose % Reduction relative to vehicle (Lepr db mice; 1 hr after glucose loading, 50 mg/kg orally): (11.6) %
serum glucose % Reduction relative to vehicle (Lepr db mice; 1 hr after glucose loading, 100 mg/kg orally): (22.1) %
Serum Glucose (Lepr db mice; 2 hr after glucose loading (2 g/kg PO), 25 mg/kg orally): 331.1 ± 14.5 mg/dL
Serum Glucose (Lepr db mice; 2 hr after glucose loading (2 g/kg PO), 50 mg/kg orally): 346 ± 16.8 mg/dL
Serum Glucose (Lepr db mice; 2 hr after glucose loading (2 g/kg PO), 100 mg/kg orally): 301.3 ± 28.4 mg/dL
serum glucose % Reduction relative to vehicle (Lepr db mice; 2 hr after glucose loading, 25 mg/kg orally): (11.8) %
serum glucose % Reduction relative to vehicle (Lepr db mice; 2 hr after glucose loading, 50 mg/kg orally): (7.8) %
serum glucose % Reduction relative to vehicle (Lepr db mice; 2 hr after glucose loading, 100 mg/kg orally): (19.7) %
glucose lowering activities of rosiglitazone and metformin in combination with Compound 39 (FIG. 8) [2]: enhanced
glucose lowering activities of rosiglitazone and metformin in combination with Compound 39 (FIG. 7) [3]: enhanced
serum glucose (FIG. 7) ([3]; Compound 39 alone): decreased serum glucose

From patent publication US20050203119A1, “Dihydropyridine compounds for treating or preventing metabolic disorders” (priority 2003, published 2005)
